Measured values published in patent US12239650B2, “Compounds for treating and preventing net associated complications” (The Australian National University, priority 2019, dated 2025).
Like-named read-outs stand apart in the source and are kept apart here.

Tests used:
[1] = test system: histone-induced platelet aggregation; assay: Histone-induced aggregation of isolated platelets; type: cell-based, human; conditions: histones 150 μg/mL, isolated platelets, FIG. 4b
Method: In vitro platelet aggregation and degranulation assays. For aggregation studies platelets were isolated from human whole blood collected into Na-citrate vacutainers through 2-step centrifugation at room temperature (200×g for 20 min then the platelet-rich plasma 800×g for 15 min), the platelet pellet resuspended in Hank's balanced salt solution containing calcium and magnesium and histones added and incubated in the presence/absence of compounds at the concentrations of each as indicated. Samples were assessed for degree of platelet aggregation after 15 min exposure to histones by flow cytometry using the characteristic log FSC versus log SSC identification of platelets, with increases in the geometric mean of log FSC indicative of platelet aggregation.

histones = assay: In-vivo histone toxicity assay; conditions: mice; for Protection from histone-induced liver damage, generalised tissue injury and kidney failure (circulating ALT, LDH, creatinine): compound i.p. 10 min prior to i.v. histones 50 mg kg^−1, blood 4 h post-histones, concentration-dependent
Method: In-vivo histone toxicity assays. BALB/c female mice (5-6 weeks of age), that are more prone to histone-induced anemia and easier to inject i.v. at this young age than C57BL/6 mice, were injected i.p. with test compounds at concentrations indicated 10 min prior to i.v. injection of histones (50 mg kg^−1) in phosphate buffered saline. Retro-orbital bleeds were performed with glass Pasteur pipettes 10 min after histone injection and collected blood added to acid citrate dextrose (ACD), the 10 min blood sample being subjected to hematologic analyses for platelet and erythrocyte content using an ADVIA 2120i Hematology Analyzer. Spleens were also harvested at 10 min post-histone injection and splenic hemoglobin content quantified using a hemoglobin assay kit (Sigma-Aldrich). In the case of 4 h blood samples, male C57/BL/6 mice (6-8 weeks of age) were injected with test compounds and histones as above and plasma isolated and stored frozen for subsequent biochemical testing, with markers for liver (alanine aminotransferase, ALT), kidney (creatinine, Crea) and general tissue (lactate dehydrogenase, LDH) damage being determined by the Department of Pathology, The Canberra Hospital.

[2] = test system: histone-mediated cytotoxicity for HMEC-1; assay: Histone-mediated cytotoxicity assay (PI/Calcein-AM flow cytometry); type: cell-based
Method: Histone-mediated cytotoxicity assays. To determine the cytotoxicity of calf thymus histones (Sigma-Aldrich), various concentrations of histones (100-800 μg ml^−1) were added to suspensions of HMEC-1 or HUVEC (1×10^6 ml^−1) in 96 well plates and incubated for 1 h at 37° C. Cells were then incubated for 5 min at 37° C. with propidium iodide (PI; 2.5 μg ml^−1) (ThermoFisher Scientific), to detect dead cells, and Calcein-AM (0.04 μM) (ThermoFisher Scientific), to detect viable cells, placed on ice and the percentage of dead and viable cells determined by flow cytometry using gating strategies. In inhibition assays, HMEC-1 were incubated with histones (400 μg ml^−1) for 1 h at 37° C. in the presence of different concentrations of compounds (12.5-400 μg ml^−1) prior to the addition of PI and Calcein-AM. HMEC-1 cytotoxicity at each compound concentration was then determined based on the formula:
[formula] and the IC50 value for each polyanion then determined based on the line of best fit (nonlinear regression analysis) using Prism Software (Graphpad Software). In all assays MTS (IC50 30 μg ml^−1) was included as a standard to compensate for experimental variation, with data being adjusted in each assay to MTS having an IC50 of 30 μg ml^−1.

[3] = test system: histone-mediated RBC aggregation; assay: Histone-mediated erythrocyte aggregation (flow cytometry, scanning EM); type: cell-based, human
Method: (§1) Human erythrocytes (RBC) were incubated for 1 h at 37° C. alone (‘Saline’ control) or in the presence of histones (400 μg ml^−1) with or without mCBS (200 μg ml^−1). a, Percentage of RBC aggregation measured by flow cytometry based on forward (FSC) and side (SSC) scatter parameters and an appropriate gating strategy to discriminate aggregated from normal (non-aggregated) RBC. b, Scanning electron micrographs depicting level of RBC aggregation at low and high magnification following the three treatments depicted in (a). c, Concentration dependent inhibition of histone-mediated RBC aggregation by mCBS and MTS, in this case RBC aggregation being calculated by flow cytometry as fold increase in RBC auto-fluorescence relative to RBC in the absence of histones. The fold increase values also provide an estimate of the number of RBC in each aggregate. d, Retention of RBC in an artificial spleen that measures RBC deformability. RBC were incubated with increasing concentrations of histones for 1 h and, at the highest concentration used (400 μg ml^−1), also incubated with either mCBS or MTS (100 and 200 μg ml^−1), prior to passage through the artificial spleen. Data are mean±s.e.m. (n=3 biological replicates). ***P<0.001, ****P<0.0001 (one way ANOVA with Dunnett's multiple comparisons test).
In vitro erythrocyte microscopy, aggregation, fragility and deformability assays. […] J Biol Chem 289, 19531-19537 (2014)). Similarly, erythrocyte fragility induced by histones, in the presence or absence of inhibitors, was quantified using a sheer stress assay that we developed recently (Kordbacheh, F., O'Meara, C. H., Coupland, L. A., Lelliott, P. M. & Parish, C. R. Extracellular histones induce erythrocyte fragility and anemia. Blood 130, 2884-2888 (2017)). Finally, the reduced deformability of erythrocytes in the presence of histones and the effect of inhibitors on this process was assessed by measuring the passage of erythrocytes through an artificial human spleen (Kordbacheh, F., O'Meara, C. H., Coupland, L. A., Lelliott, P. M. & Parish, C. R. Extracellular histones induce erythrocyte fragility and anemia. Blood 130, 2884-2888 (2017); and Deplaine, G. et al. The sensing of poorly deformable red blood cells by the human spleen can be mimicked in vitro. Blood 117, e88-95 (2011)).

[4] = test system: histone-induced erythrocyte rigidity; assay: Erythrocyte deformability, passage through artificial spleen; type: cell-based, human; conditions: histones 400 μg ml^−1, compounds 100 and 200 μg ml^−1, FIG. 3d
Method: as §1, with “RBC were incubated with increasing concentrations of histones for 1 h and, at the highest concentration used (400 μg ml^−1), also incubated with either mCBS or MTS (100 and 200 μg ml^−1), prior to passage through the artificial spleen. Data are mean±s.e.m. (n=3 biological replicates). ***P<0.001, ****P<0.0001 (one way ANOVA with Dunnett's multiple comparisons test).” left out
In vitro erythrocyte microscopy, aggregation, fragility and deformability assays. […] Similarly, erythrocyte fragility induced by histones, in the presence or absence of inhibitors, was quantified using a sheer stress assay that we developed recently (Kordbacheh, F., O'Meara, C. H., Coupland, L. A., Lelliott, P. M. & Parish, C. R. Extracellular histones induce erythrocyte fragility and anemia. Blood 130, 2884-2888 (2017)). […]

[5] = Rat ischemia reperfusion tissue (skin) flap model; type: in vivo; conditions: rat skin flap IRI, 50 mg kg^−1 i.p., 72 h, FIG. 7d
From the text: Rat ischemia reperfusion tissue flap model. The procedure employed is largely based on a previously described method (Bone, R. C. et al. Definitions for sepsis and organ failure and guidelines for the use of innovative therapies in sepsis. The ACCP/SCCM Consensus Conference Committee. American College of Chest Physicians/Society of Critical Care Medicine. Chest 101, 1644-1655 (1992)). Briefly, male Wistar rats were anaesthetized, locally depilated and a 3 cm by 6 cm fasciocutaneous flap was excised leaving the vascular pedicle intact. […] The clamp was removed 10 h post-application permitting returned blood flow to the flap. Test compounds (50 mg kg^−1) or saline were administered i.p. 5 min prior to clamp application and 5 min following its removal. The rats were monitored for a total experimental period of 72 h during which rats received additional compound or saline i.p. at 24 and 48 h post-op. The ‘Control No Clamp’ rats had the tissue flap excised and rubber placed underneath prior to re-suturing, however, the vessel was not clamped and they received saline at the same time points as the other rats. At the end of the experimental period the viability of the flaps was determined by the percentage of black necrotic or reddened areas versus pink viable areas. […]

[6] = test system: anti-proliferative effect of histones on HMEC-1; assay: HMEC-1 proliferation (3H-thymidine) after histone exposure; type: cell-based, human; conditions: compounds 100 μg ml^−1, histones 400 μg ml^−1, FIG. 8b

## OC[C@H]1O[C@@H](O[C@H]2[C@H](O)[C@@H](O)[C@H](O)O[C@@H]2CO)[C@H](O)[C@@H](O)[C@@H]1O [CB]
[1]
  Inhibition of histone-induced platelet aggregation: non-inhibitory
histones; FIG. 6a
  Protection from histone-induced liver damage, generalised tissue injury and kidney failure (circulating ALT, LDH, creatinine): inactive

## O=S(=O)(O)OC[C@H]1OC(OS(=O)(=O)O)[C@H](OS(=O)(=O)O)[C@@H](OS(=O)(=O)O)[C@@H]1OS(=O)(=O)O (some centres unmarked) [glucose per-O-sulfate]
[2]
  Inhibition of histone-mediated cytotoxicity for HMEC-1 (endothelial cells): little or no inhibitory activity

## CO[C@@H]1O[C@H](COS(=O)(=O)O)[C@@H](OS(=O)(=O)O)[C@H](OS(=O)(=O)O)[C@H]1OS(=O)(=O)O [methyl β-glucoside per-O-sulfate]
[2]; compared with heparin, FIG. 2a
  Inhibition of histone-mediated cytotoxicity for HMEC-1 (endothelial cells): little or no inhibitory activity

## β-O-methyl cellobioside sulfate [mCBS]
[2]; compared with heparin, FIG. 2a
  Inhibition of histone-mediated cytotoxicity for HMEC-1 (endothelial cells): as effective as heparin
[3]; histones 400 μg ml^−1, FIG. 3c
  Prevention of histone-mediated RBC aggregation (auto-fluorescence): prevented aggregation in a concentration dependent manner
[3]; histones 400 μg ml^−1, mCBS 200 μg ml^−1, 1 h 37° C., FIG. 3a, confirmed by scanning EM
  Inhibition of histone-induced erythrocyte aggregation (FSC/SSC): completely inhibited
[4]
  Ability of erythrocytes to passage through an artificial spleen: totally restored
[1]
  Inhibition of histone-induced platelet aggregation: completely inhibited
histones; 100 mg kg^−1 i.p., 10 min post-histones, FIG. 6b
  Histone-induced thrombocytopenia and anaemia: prevented
histones; FIG. 6a
  Relative potency in protecting from histone-induced tissue pathologies: equally active
  Protection from histone-induced liver damage, generalised tissue injury and kidney failure (circulating ALT, LDH, creatinine): protected
[5]
  Viable area of the skin flap: consistently and significantly increased
[6]
  Neutralization of anti-proliferative effect of histones on HMEC-1 monolayers: completely neutralized
